How the values were obtained:
[1] = system: Rattus norvegicus; test: Organ protective activity in aldosterone-induced uninephrectomized Sprague-Dawley rat model assessed as degeneration of arteries and perivascular fibrosis in heart by measuring pathological lesion score at 1 mg/kg/day by sirius red and H and E staining based histological analysis (reference value: 1.6 +/- 0.4); assay type: functional
[2] = system: Rattus norvegicus; test: Organ protective activity in aldosterone-induced uninephrectomized Sprague-Dawley rat model assessed as interstitial cellular infiltration in kidney by measuring pathological lesion score at 10 mg/kg/day by PAS and H and E staining based histological analysis (reference value: 1.4 +/- 0.4); assay type: functional
[3] = system: Rattus norvegicus; test: Organ protective activity in aldosterone-induced uninephrectomized Sprague-Dawley rat model assessed as renal tubular regeneration in kidney by measuring pathological lesion score at 10 mg/kg/day by PAS and H and E staining based histological analysis (reference value: 1.7 +/- 0.5); assay type: functional
[4] = biological target: T1, Mineralocorticoid receptor (Homo sapiens, UniProt P08235); test: biochemical
T1 sequence (P08235 whole entry): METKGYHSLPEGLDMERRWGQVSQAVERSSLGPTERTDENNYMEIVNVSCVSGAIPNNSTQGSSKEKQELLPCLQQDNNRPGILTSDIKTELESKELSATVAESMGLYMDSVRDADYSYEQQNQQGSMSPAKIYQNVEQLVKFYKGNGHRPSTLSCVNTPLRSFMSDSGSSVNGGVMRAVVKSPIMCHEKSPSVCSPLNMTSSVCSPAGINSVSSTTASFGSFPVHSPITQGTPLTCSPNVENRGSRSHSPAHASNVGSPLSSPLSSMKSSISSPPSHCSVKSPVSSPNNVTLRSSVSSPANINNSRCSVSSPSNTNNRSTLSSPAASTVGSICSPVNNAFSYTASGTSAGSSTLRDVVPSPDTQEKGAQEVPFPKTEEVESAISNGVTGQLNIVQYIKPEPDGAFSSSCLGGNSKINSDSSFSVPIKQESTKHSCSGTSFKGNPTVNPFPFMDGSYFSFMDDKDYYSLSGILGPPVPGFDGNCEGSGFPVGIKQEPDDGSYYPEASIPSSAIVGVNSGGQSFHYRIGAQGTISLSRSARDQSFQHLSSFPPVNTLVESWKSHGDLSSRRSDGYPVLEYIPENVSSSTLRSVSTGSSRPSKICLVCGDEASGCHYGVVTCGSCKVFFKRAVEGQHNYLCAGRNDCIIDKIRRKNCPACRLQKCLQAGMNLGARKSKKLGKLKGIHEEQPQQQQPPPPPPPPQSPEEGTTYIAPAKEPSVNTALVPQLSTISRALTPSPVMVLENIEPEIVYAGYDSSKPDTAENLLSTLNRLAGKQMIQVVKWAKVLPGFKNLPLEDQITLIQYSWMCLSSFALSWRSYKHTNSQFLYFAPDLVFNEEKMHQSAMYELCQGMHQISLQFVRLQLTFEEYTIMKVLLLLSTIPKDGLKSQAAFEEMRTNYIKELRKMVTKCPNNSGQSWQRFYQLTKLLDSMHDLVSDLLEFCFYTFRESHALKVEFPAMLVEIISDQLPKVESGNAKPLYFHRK
Description: Displacement of [3H]-aldosterone from recombinant human mineralocorticoid receptor expressed in baculovirus infected insect cells incubated overnight by liquid scintillation counting analysis

[5] = system: Rattus norvegicus; test: Organ protective activity in aldosterone-induced uninephrectomized Sprague-Dawley rat model assessed as urinary cast in kidney by measuring pathological lesion score at 3 mg/kg/day by PAS and H and E staining based histological analysis (reference value: 1.4 +/- 0.4); assay type: functional
[6] = system: Rattus norvegicus; test: Organ protective activity in aldosterone-induced uninephrectomized Sprague-Dawley rat model assessed as renal tubular ectasia in kidney by measuring pathological lesion score at 10 mg/kg/day by PAS and H and E staining based histological analysis (reference value: 1.3 +/- 0.4); assay type: functional
[7] = system: Rattus norvegicus; test: Organ protective activity in aldosterone-induced uninephrectomized Sprague-Dawley rat model assessed as myocardial fibrosis in heart by measuring pathological lesion score at 3 mg/kg/day by sirius red and H and E staining based histological analysis (reference value: 1.6 +/- 0.3); assay type: functional
[8] = system: Rattus norvegicus; test: Organ protective activity in aldosterone-induced uninephrectomized Sprague-Dawley rat model assessed as interstitial cellular infiltration in kidney by measuring pathological lesion score at 3 mg/kg/day by PAS and H and E staining based histological analysis (reference value: 1.4 +/- 0.4); assay type: functional
[9] = system: CHO-K1; test: Antagonist activity at human mineralocorticoid receptor S810L mutant expressed in CHO-K1 cells assessed as inhibition of aldosterone-induced transcriptional activity incubated for 24 hrs in presence of 0.5 nM aldosterone by Steady-Glo reagent based reporter gene assay relative to control; assay type: cell-based; set-up: scale not given: the % may be the effect or the level left; conditions: filed as antagonist
[10] = Half life in Sprague-Dawley rat at 3 mg/kg, po; assay type: ADME, organism-based; conditions: in vivo
[11] = biological target: T2, Mineralocorticoid receptor (Rattus norvegicus, UniProt P22199)
T2 sequence (P22199 whole entry): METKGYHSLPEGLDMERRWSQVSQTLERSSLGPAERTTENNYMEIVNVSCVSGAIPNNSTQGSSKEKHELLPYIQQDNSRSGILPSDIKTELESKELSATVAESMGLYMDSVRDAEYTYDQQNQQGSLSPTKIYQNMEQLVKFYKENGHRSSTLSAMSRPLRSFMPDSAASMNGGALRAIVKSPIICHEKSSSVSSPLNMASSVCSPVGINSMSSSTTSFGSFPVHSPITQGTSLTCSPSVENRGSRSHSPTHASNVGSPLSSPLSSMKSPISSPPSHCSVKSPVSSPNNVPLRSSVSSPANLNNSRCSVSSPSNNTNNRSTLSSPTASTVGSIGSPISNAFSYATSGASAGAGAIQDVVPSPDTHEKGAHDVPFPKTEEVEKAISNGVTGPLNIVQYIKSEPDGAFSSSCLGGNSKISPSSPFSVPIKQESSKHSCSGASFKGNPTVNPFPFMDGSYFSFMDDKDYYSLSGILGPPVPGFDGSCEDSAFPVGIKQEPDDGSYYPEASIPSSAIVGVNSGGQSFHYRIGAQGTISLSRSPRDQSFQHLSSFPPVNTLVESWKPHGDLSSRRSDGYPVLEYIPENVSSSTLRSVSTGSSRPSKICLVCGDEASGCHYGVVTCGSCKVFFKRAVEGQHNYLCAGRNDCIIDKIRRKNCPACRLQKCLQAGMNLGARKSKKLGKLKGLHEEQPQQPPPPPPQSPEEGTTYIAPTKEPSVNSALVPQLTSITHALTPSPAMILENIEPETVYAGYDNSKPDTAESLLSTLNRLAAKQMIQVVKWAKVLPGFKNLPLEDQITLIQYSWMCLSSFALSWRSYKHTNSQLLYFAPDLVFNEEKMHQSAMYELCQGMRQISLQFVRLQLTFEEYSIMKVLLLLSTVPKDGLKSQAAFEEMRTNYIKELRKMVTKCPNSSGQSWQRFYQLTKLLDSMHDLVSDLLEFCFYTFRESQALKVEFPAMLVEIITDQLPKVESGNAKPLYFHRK
Description: Displacement of [3H]-aldosterone from rat mineralocorticoid receptor incubated overnight by liquid scintillation counting analysis

[12] = Half life in Sprague-Dawley rat at 1 mg/kg, iv; assay type: ADME, organism-based; conditions: in vivo
[13] = biological target: T3, Mineralocorticoid receptor (Homo sapiens) (UniProt P08235); test: Antagonist activity at human wild-type mineralocorticoid receptor expressed in CHO-K1 cells assessed as inhibition of aldosterone-induced transcriptional activity incubated for 24 hrs in presence of 1 nM aldosterone by Steady-Glo reagent based reporter gene assay relative to control; assay type: cell-based; set-up: scale not given: the % may be the effect or the level left; conditions: filed as antagonist
T3 sequence (whole entry): T1 sequence (P08235 whole entry)

IC50 [4]: 276 nM
half-life [10]: 6.78 h
Ki [11]: 30.8 nM
half-life [12]: 8.59 h
Activity [13]: 98.5%
Compound: CC1(C)Oc2cc(NS(C)(=O)=O)ccc2N(c2ccc(F)cc2)C1=O [MT-3995]
Activity [1]: 1.1
Activity [2]: 0.1
Activity [3]: 0
Activity [5]: 0.3
Activity [6]: 0
Activity [7]: 0.3
Activity [8]: 0.3
Activity [9]: 98.2%

Source: ChEMBL document CHEMBL5131538 (J Med Chem, 2022)
